# From PubChem BioAssay (NCI)
#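 48-hour exposure; five concentrations; linearly interpolated endpoints. Here, GI50 denotes the concentration required for 50% inhibition of growth. TGI marks complete inhibition of growth.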
# Columns and labels:
# Assay in all cases: inhibition of tumour cell growth, NCI panel, 48 h
# [1] = system: T-47D breast
# [2] = system: SK-MEL-2 melanoma
# [3] = system: NCI/ADR-RES ovarian
# [4] = system: SF-295 CNS
# [5] = system: NCI-H23 lung
# [6] = system: PC-3 prostate
# [7] = system: M14 melanoma
# [8] = system: RPMI-8226 leukemia
# [9] = system: MALME-3M melanoma
# [10] = system: MDA-MB-435
# [11] = system: CAKI-1 renal
# [12] = system: HL-60(TB) leukemia
# [13] = system: CCRF-CEM leukemia
# [14] = system: K-562 leukemia
# [15] = system: A549 NSCLC
# [16] = system: SF-539 CNS
# [17] = system: HCT-15 colon
# [18] = system: HS 578T breast
# [19] = system: RXF 393 renal
# [20] = system: HCC-2998 colon
# [21] = system: UO-31 renal
# [22] = system: SN12C renal
# [23] = system: MOLT-4 leukemia
# [24] = system: ACHN renal
# [25] = system: U251 CNS
# [26] = system: NCI-H226 lung
# [27] = system: TK-10 renal
# [28] = system: HT29 colon
# [29] = system: DU-145 prostate
# [30] = system: SK-MEL-28 melanoma
# [31] = system: HOP-62 NSCLC
# [32] = system: KM12 colon
# [33] = system: SF-268 CNS
# [34] = system: UACC-62 melanoma
# [35] = system: OVCAR-3 ovarian
# [36] = system: NCI-H460 lung
# [37] = system: NCI-H522 lung
# [38] = system: IGROV1 ovarian
# [39] = system: SR leukemia
# [40] = system: BT-549 breast
# [41] = system: MDA-MB-231 breast
# [42] = system: SNB-19 CNS
# [43] = system: A498 renal
# [44] = system: SNB-75 CNS
# [45] = system: 786-0 renal
# [46] = system: UACC-257 melanoma
# [47] = system: OVCAR-8 ovarian
# [48] = system: SK-OV-3 ovarian
# [49] = system: OVCAR-5 ovarian
# [50] = system: LOX IMVI melanoma
# [51] = system: HCT-116 colon
# [52] = system: SW-620 colon
# [53] = system: MCF7 breast
# [54] = system: COLO 205 colon
# [55] = system: OVCAR-4 ovarian
# [56] = system: SK-MEL-5 melanoma
smiles,measurement,setting,value
Cn1cc(C2=C(c3cn(C)c4ccc(Cl)cc34)C(=O)NC2=O)c2ccccc21,GI50,[1],3.84 µM
same,TGI,[1],13 µM
same,GI50,[2],1.68 µM
same,TGI,[2],6.65 µM
same,GI50,[3],3.82 µM
same,TGI,[3],> 23 µM
same,GI50,[4],1.6 µM
same,TGI,[4],8.02 µM
same,GI50,[5],4.64 µM
same,TGI,[5],14.6 µM
same,GI50,[6],3.88 µM
same,TGI,[6],> 23.2 µM
same,GI50,[7],2.63 µM
same,TGI,[7],> 24 µM
same,GI50,[8],5.68 µM
same,TGI,[8],17.2 µM
same,GI50,[9],6.33 µM
same,TGI,[9],19 µM
same,GI50,[10],0.645 µM
same,TGI,[10],2.85 µM
same,GI50,[11],2.75 µM
same,TGI,[11],> 23.7 µM
same,GI50,[12],1.4 µM
same,TGI,[12],8.82 µM
same,GI50,[13],1.18 µM
same,TGI,[13],19.2 µM
same,GI50,[14],1.35 µM
same,TGI,[14],> 25 µM
same,GI50,[15],2.12 µM
same,TGI,[15],16.8 µM
same,GI50,[16],1.28 µM
same,TGI,[16],4.74 µM
same,GI50,[17],1.35 µM
same,TGI,[17],> 25 µM
same,GI50,[18],2.11 µM
same,TGI,[18],> 23.9 µM
same,GI50,[19],3.19 µM
same,TGI,[19],7.76 µM
same,GI50,[20],6.76 µM
same,TGI,[20],> 23.9 µM
same,GI50,[21],2.54 µM
same,TGI,[21],11.7 µM
same,GI50,[22],3.87 µM
same,TGI,[22],15.7 µM
same,GI50,[23],2.17 µM
same,TGI,[23],14.9 µM
same,GI50,[24],3.15 µM
same,TGI,[24],> 25 µM
same,GI50,[25],2.21 µM
same,TGI,[25],14 µM
same,GI50,[26],4.56 µM
same,TGI,[26],17.4 µM
same,GI50,[27],5.55 µM
same,TGI,[27],23 µM
same,GI50,[28],1.23 µM
same,TGI,[28],8.38 µM
same,GI50,[29],8.45 µM
same,TGI,[29],> 25 µM
same,GI50,[30],4.26 µM
same,TGI,[30],19.6 µM
same,GI50,[31],3.79 µM
same,TGI,[31],17.8 µM
same,GI50,[32],2.38 µM
same,TGI,[32],10.4 µM
same,GI50,[33],5.51 µM
same,TGI,[33],> 25 µM
same,GI50,[34],2.42 µM
same,TGI,[34],8.36 µM
same,GI50,[35],1.44 µM
same,TGI,[35],6.88 µM
same,GI50,[36],3.25 µM
same,TGI,[36],8.9 µM
same,GI50,[37],1.34 µM
same,TGI,[37],10.5 µM
same,GI50,[38],6.51 µM
same,TGI,[38],> 21.7 µM
same,GI50,[39],1.18 µM
same,TGI,[39],16.2 µM
same,GI50,[40],3.56 µM
same,TGI,[40],9.03 µM
same,GI50,[41],6.69 µM
same,TGI,[41],> 25 µM
same,GI50,[42],8.33 µM
same,TGI,[42],> 25 µM
same,GI50,[43],1.75 µM
same,TGI,[43],7.09 µM
same,GI50,[44],0.709 µM
same,TGI,[44],> 17.3 µM
same,GI50,[45],4.03 µM
same,TGI,[45],16.9 µM
same,GI50,[46],5.09 µM
same,TGI,[46],16.8 µM
same,GI50,[47],5.16 µM
same,TGI,[47],> 21.6 µM
same,GI50,[48],2.87 µM
same,TGI,[48],> 21 µM
same,GI50,[49],9.3 µM
same,TGI,[49],> 21.9 µM
same,GI50,[50],2.74 µM
same,TGI,[50],11.9 µM
same,GI50,[51],1.52 µM
same,TGI,[51],7.42 µM
same,GI50,[52],1.38 µM
same,TGI,[52],> 25 µM
same,GI50,[53],1.25 µM
same,TGI,[53],> 25 µM
same,GI50,[54],1.67 µM
same,TGI,[54],7.93 µM
same,GI50,[55],6 µM
same,TGI,[55],> 23.5 µM
same,GI50,[56],3.47 µM
same,TGI,[56],8.28 µM
